Reference: US9512139B2, “Conformationally constrained, fully synthetic macrocyclic compounds” (POLYPHOR AG, priority 2009, dated 2016)
Where two headings read alike, the source gives them in different places.

Legend:
[1] = test system: MAPK/MEK/B-raf pathway (AP1-bla A375 cells); assay: MAPK/MEK/B-raf AP1-bla A375 inhibitor screen, constitutively activated (negative control of the Wnt assay); format: cell-based
Procedure: (§1) 3. Assays for the Wnt-Pathway
(§2) For determining the activity of the test compounds on the Wnt-pathway each substances war subjected to two distinct assays: The first (Wnt/Beta-Catenin) assay screened for inhibitors of the Wnt-pathway while the second (MAPK/MEK/B-raf) was conducted in order to confirm that the test compounds modulate the β-catenin-dependent, canonical Wnt pathway and are not acting via a possibly competing β-catenin-independent, noncanonical Wnt messaging system.
(§3) Both assays were performed and analyzed with a Tecan Safire^2 fluorescence plate reader.
MAPK/MEK/B-raf—APl-bla A375—Inhibitor Screen, Constitutively Activated
(§4) AP1-bla A375 cells are thawed and resuspended in Assay Media (OPTI-MEM, 0.5% dialyzed FBS, 0.1 mM NEAA, 1 mM Sodium Pyruvate, 100 U/mL/100 μg/mL Pen/Strep) to a concentration of 312,500 cells/mL. 4 μL of a 10× serial dilution of Raf1 Kinase Inhibitor (control inhibitor starting concentration, 10,000 nM) or compounds are added to appropriate wells of a TC-Treated assay plate. 32 μL of cell suspension (10,000 cells) is added to the wells. 4 μL of Assay Media is added to all wells to bring the final assay volume to 40 μL. The plate is incubated for 16-24 hours at 37° C./5% CO2 in a humidified incubator. 8 μL of 1 μM Substrate Loading Solution is added to each well and the plate is incubated for 2 hours at room temperature.

[2] = test system: Wnt/Beta-Catenin pathway (LEF-TCF-bla SW480 cells); assay: Wnt/Beta-Catenin (APC-/-) LEF-TCF-bla SW480 inhibitor screen, constitutively activated; format: cell-based; conditions: for IC50: read-out: TCF/LEF receptor gene activity IC50; for inhibition at 10 µM: read-out: TCF/LEF receptor gene activity [% inhibition at 10 μM]
Procedure: as §1, §2, §3
Wnt/Beta-Catenin (APC−/−)—LEF-TCF-bla SW480—Inhibitor Screen, Constitutively Activated
as §4, with “LEF-TCF-bla SW480” for “AP1-bla A375”, “ICG-001” for “Raf1 Kinase Inhibitor”

[3] = Homo sapiens, A-375, read-out: AP receptor gene activity IC50

Row | IC50 ([1]; read-out: AP receptor gene activity IC50) [µM] | IC50 [2] [µM] | IC50 [1, 3] [µM] | IC50 ([2]; Homo sapiens, SW480) [µM] | SMILES | TCF/LEF receptor gene activity [% inhibition at 10 μM] ([2]; 10 μM) [%] | inhibition at 10 µM ([2]; Homo sapiens, SW480) [%]
1 | > 50 | 1.1 |  |  | CN1CC(=O)N2C[C@@H](NC(=O)Cc3ccc4ccccc4c3)C[C@H]2COc2ccc(F)cc2C(=O)N(C)[C@H](C(=O)NCc2cccc3ccccc23)CCC1=O [Ex. 501, (2S,11S,19aS)-15-fluoro-7,12-dimethyl-2-{[2-(2-naphthyl)acetyl]amino}-N-(1-naphthylmethyl)-5,8,13-trioxo-2,3,6,7,8,9, 10,11,12,13,19,19a-dodecahydro-1H,5H-pyrrolo[2,1-c] [1,4,7,12]benzoxatriazacyclo-pentadecine-11-carboxamide] | 100 | 
2 |  |  | > 50 | 5.8 | CN1CC(=O)N2C[C@@H](NC(=O)c3cccc4ccccc34)C[C@H]2COc2ccc(F)cc2C(=O)N(C)[C@H](C(=O)NCc2ccc3ccccc3c2)CCC1=O [Ex. 503, (2S,11S,19aS)-15-fluoro-7,12-dimethyl-2-(1-naphthoylamino)-N-(2-naphthylmethyl)-5,8,13-trioxo-2,3,6,7,8,9,10,11,12,13,19,19a-dodecahydro-1H,5H-pyrrolo[2,1-c] [1,4,7,12]benzoxatriazacyclopentadecine-11-carboxamide] |  | 68
3 |  |  | > 50 | 5.5 | CN1CC(=O)N2C[C@@H](NC(=O)c3cccc(Cl)c3)C[C@H]2COc2ccc(F)cc2C(=O)N(C)[C@H](C(=O)NCc2cccc3ccccc23)CCC1=O [Ex. 502, (2S,11S,19aS)-2-[(3-chlorobenzoyl)amino]-15-fluoro-7,12-dimethyl-N-(1-naphthylmethyl)-5,8,13-trioxo-2,3,6,7,8,9,10,11,12,13,19,19a-dodecahydro-1H,5H-pyrrolo[2,1-c] [1,4,7,12] benzoxatriazacyclopentadecine-11-carboxamide] |  | 82
